Experimental findings from US20140128357A1, “METHODS OF PRODUCING AND USING BRASSINOSTEROIDS TO PROMOTE GROWTH, REPAIR AND MAINTENANCE OF SKELETAL MUSCLE AND SKIN” (Rutgers University, priority 2010, published 2014) are described below.

The structures appear in SMILES notation. Read-outs that look alike come from different tables or passages of the source. Some results are limits rather than exact numbers.

The test system of data set [1] is L6 rat myotubes. The experiment in a line: Protein synthesis, [3H]-phenylalanine incorporation in myotubes. Type of data set: cell-based. To be noted: 10 μM; for Protein synthesis (% increase over control): 4 h. Here is the method: (§1) In some aspects, cell culture experiments were carried out. Rat L6 skeletal muscle cell line CRL-1458 was obtained from ATCC (Manassas, Va.). Myoblasts were routinely maintained in Dulbecco's modified Eagle's medium (DMEM) containing 10% FBS and 0.1% penicillin-streptomycin at 37° C. and 5% CO2. Cells were subcultured into 24-well plates for protein synthesis, degradation, and cell viability studies and into 6-well plates for Western blot analyses (Greiner Bio One, Monroe, N.C.). Once cells reached 90% confluence, differentiation was induced by lowering the serum concentration to 2%, and medium was changed every 2 days. After 7-9 days of culture the myoblasts had fused into multinucleated myotubes (Mandel et al., Nature 251:618-620, 1974). NIH 3T3 murine embryonic fibroblast cell line (ATCC #CCL-92) was maintained in DMEM and 10% FBS at 37° C. in 5% CO2, and passaged every 3-4 days.
In various aspects, protein synthesis is measured to determine the effect of brassinosteroid on a particular protein. All known methods for measuring protein synthesis are included in the methods of the disclosure. In brassinosteroid dose response studies, fully differentiated myotubes were washed with serum-free DMEM and treated in triplicate with vehicle (0.1% ethanol), increasing concentrations of HB, or 6.5 nM of insulin-like growth factor-1 (IGF-1) as a positive control. Compounds were added to serum-free medium containing 0.5 μCi/mL [^3H]-phenylalanine and incubated for 4 h. For the HB time course study, fully differentiated myotubes were treated with 3 μM HB for 1-24 h using the same culture conditions. The incubation was stopped by placing cells on ice, discarding the medium, and washing the cells extensively with ice-cold PBS to remove the non-incorporated radiolabel. Proteins were precipitated with 5% trichloroacetic acid and dissolved in 0.5N NaOH (Montgomery et al., Methods Cell. Sci. 24:123-129, 2002). Specific radioactivity of protein-bound phenylalanine was quantified using liquid scintillation counter LS 6500 (Beckman Coulter, Fullerton, Calif.) and normalized to mg of total protein determined by BCA protein assay (Pierce Biotechnology, Rockford, Ill.).
The bioactivity of HB and its analogs was evaluated by measuring increases in protein synthesis in the L6 rat skeletal muscle cells in vitro. Cells were incubated for 4 h with [^3H]-phenylalanine and treated in triplicate with vehicle (0.1% ethanol) or test compound (10 μM), and protein synthesis was measured as incorporation of [^3H]-phenylalanine into protein normalized by total protein (Table 3). Under these conditions, both HB and (22S,23S)-homocastasterone increased protein synthesis by 37.2±5.9% (p<0.001) and 41.0±2.7% (p<0.001), respectively. This protein synthesis increase compared favorably to the biological activity of IGF-1 at 6.5 nM (42.5±4.5%, p<0.001) that served as a positive control in this assay. Removal of the 2α-hydroxyl group and fluorination at C-3 in the A ring (compound IDs 3-4 in Table 3) led to about a 50% decrease in bioactivity (24.6±5.3%, p<0.01 and 22.5±2.7%, p<0.01, respectively) compared to the positive control. However, there was still an increase in protein synthesis. […] Modifications in the side chain (compound IDs 7-9 in Table 3) abolished the activity.

For data set [2], the system named is 3T3 Swiss fibroblast monolayers. As to the kind of experiment: Scratch wound closure in vitro. Type of data set: cell-based, mouse. The settings on record: for Scratch wound closure at 5 μM, % of control: 12 h (Table 6); for Wound Closure (% over control): 10 μM, 12 h (Table 4). The procedure:
3T3 fibroblasts were seeded into 24-well dishes at a concentration of 3×10^5 cells/ml and cultured to nearly confluent cell monolayers. On the day of the experiment, a linear wound was generated in the monolayer with a sterile 100 μl plastic pipette tip and any cellular debris was removed by washing cells once with sterile PBS. Fresh DMEM medium containing vehicle (0.1% ethanol), positive control (0.5% FBS), or various concentrations of the fractions, sub-fractions or pure compounds was added to a set of 3 wells per dose and incubated for 12 h at 37° C. with 5% CO2. Cells were then visualized with 20 μl of 10% methylene blue in PBS for 5 min. Three representative images of the scratched areas from each well were photographed at 0 and 12 h to estimate the scratch wound closure. Images were analyzed using ImageJ program (NIH, Bethesda, Md.) and % wound closure was calculated relative to vehicle control and was reported as wound closure % over control (Table 4). 3T3 Swiss fibroblast were seeded into 24-well tissue culture at a concentration of 3×10^5 cells/ml and cultured to nearly confluent cell monolayers. Then, a linear wound was generated in the monolayer with a sterile 100 μl plastic pipette tip. Any cellular debris was removed by washing with PBS. DMEM medium with vehicle (0.1% ethanol), FBS (1%, positive control), or various concentrations of brassinosteroids were added to a set of 3 wells per dose and incubated for 12 h at 37° C. with 5% CO2. Cells were visualized in 10% methylene blue for 5 minutes. Three representative images from each well of the scratched areas under each condition were photographed to estimate the relative migration of cells at 0 and 12 h post-treatment. Data were analyzed using ImageJ software available online from the National Institutes of Health (rsbweb.nih.gov/ij/) by calculating the percentage of scratch closure at each dose point relative to control.

In data set [3] the test system is L6 rat myotubes. As to the kind of experiment: Protein degradation, release of acid-soluble [3H]-phenylalanine. Type of data set: cell-based. To be noted: 10 μM; for Protein degradation (% decrease over control): 4 h. Here is the method: as §1, with “After 7-9 days of culture the myoblasts had fused into multinucleated myotubes (Mandel et al., Nature 251:618-620, 1974).” left out
In various aspects, protein degradation is measured to determine the effect of brassinosteroid on a particular protein. All known methods for measuring protein degradation are included in the methods of the disclosure. The effect of brassinosteroids on protein degradation was investigated in fully differentiated myotubes as described by Fawcett et al. (Arch. Biochem. Biophys. 385:357-363, 2001) with slight modifications. Fully differentiated myotubes were incubated for 16 h to allow labeling of cellular proteins with 1.5 μCi/mL [^3H]-phenylalanine. […] The incubation was stopped by placing the cells on ice, and protein in the medium was precipitated with 5% trichloroacetic acid. Specific radioactivity of protein-free phenylalanine was quantified using liquid scintillation counter LS 6500 (Beckman Coulter, Fullerton, Calif.) and normalized to mg of total cell protein determined by BCA protein assay (Pierce Biotechnology, Rockford, Ill.).
The bioactivity of HB and its analogs (as shown in Table 3) were also evaluated by measuring decreases in protein degradation in the L6 rat skeletal muscle cells in vitro. Cells were labeled overnight with [^3H]-phenylalanine and subsequently treated for 4 h in triplicate with vehicle (0.1% ethanol) or test compound (10 μM), and protein degradation was assessed as release of acid-soluble [^3H]-phenylalanine into the media normalized by total protein (Table 3).

For data set [4], the system named is NIH 3T3 murine fibroblast cell line. As to the kind of experiment: Cytotoxicity, MTT assay in 3T3 fibroblasts. The class given is cell-based, mouse. Here is the method:
FIG. 9. Cell survival curves as measured by MTT assay for brassinosteroids 1-9 against the murine fibroblast cell line NIH-3T3. Cells were incubated with various concentrations of brassinosteroids (0.3-30 μM) for 24 h at 37° C. The mean absorbance of the control cells represented 100% cell proliferation, and the mean absorbance of treated cells was related to control values to determine sensitivity. Error bars represent standard error (n=6) from mean cell proliferation as determined by repeated experiments.
In various aspects, cell viability is measured and the effects of doses of compound and test reagents are tested in cell lines. In some aspects, cell viability was measured by the MTT (3-(4,5-Dimethylthiazol-2-yl)-2,5-diphenyltetrazolium bromide) assay in triplicate (Mosmann et al., J. Immunol. Methods 65:55-63, 1983) and quantified spectrophotometrically at 550 nm using a microplate reader (Molecular Devices, Sunnyvale, Calif.).
3T3 fibroblasts were seeded in a 96-well flat bottom plate at a density of 1×10^4 cells/well. Cell viability was measured by an MTT (3-(4,5-Dimethylthiazol-2-yl)-2,5-diphenyltetrazolium bromide) assay in triplicate (0.3-30 μM of test substance for […]) essentially as described by Mosmann (J. Immunol. Methods 65, 55-63, 1983) and quantified spectrophotometrically at 550 nm using a microplate reader (Molecular Devices, Sunnyvale, Calif.). […] For cell proliferation studies, cells were treated in triplicate with 0.1-10 μM of test substance for 24 h and assayed using a BrdU (5-bromo-2′-deoxyuridine) kit from Amersham (Uppsala, Sweden).
In general terms: Formazan colour is commonly taken as a measure of viable cells.

Data set [5] deals with orchiectomized (ORX) Wistar rats. The experiment in a line: 10-d Hershberger assay in ORX rats, subcutaneous HB (Protocol 4). Type of data set: in vivo, rat. To be noted: 0.4 mg/kg subcutaneous daily 10 d. Here is the method:
Protocol 4: Four-week-old sham-operated (sham, n=6) or orchiectomized (ORX, n=24) Wistar rats (Charles River Laboratories, MA) were subject to a 10-d Hershberger assay (surgically castrated peri-pubertal adult model) under the following experimental conditions: sham, ORX (vehicle), ORX (0.4 mg/kg HB subcutaneously), ORX (4 mg/kg HB subcutaneously), and ORX (0.4 mg/kg testosterone propionate subcutaneously, serving as a positive control for the assay). All procedures and measurements followed protocol 1. […]

The test system is the same in data set [6]. Type of data set: in vivo, rat. The settings on record: ORX rats, 0.4 mg/kg subcutaneous 10 d, positive control of oral study. The procedure: Protocol 3: Four-week-old sham-operated (sham, n=6) or orchiectomized (ORX, n=24) Wistar rats (Charles River Laboratories, MA) were subject to a 10-d Hershberger assay (surgically castrated peri-pubertal adult model) under the following experimental conditions: sham, ORX (vehicle), ORX (20 mg/kg HB orally), ORX (60 mg/kg HB orally), and ORX (0.4 mg/kg testosterone propionate subcutaneously, serving as a positive control for the assay). All procedures and measurements followed protocol 1, except no body composition measurements were taken. Limb grip strength was measured for control animals and animals receiving 60 mg/kg HB using a digital force gauge (Wagner Instruments model FDV5) by Product Safety Laboratories (Dayton, N.J.). After the rats were allowed to grip the screen with paws, the animals were quickly pulled until the paws released from the screen, and the required release force was recorded. Three trials on each animal were performed in triplicate, and significance was determined using Student's t test (p<0.05). In addition to the gastrocnemius muscle, androgen-sensitive tissues (ventral prostate, seminal vesicles, bulbocavernosus/levator ani muscle complex, glans penis, and Cowper's gland) were dissected out and weighed.
The muscle samples for histochemical analysis were taken from the middle section of the mixed-fiber gastrocnemius muscle of the castrated animals treated according to protocol 4 (described herein above) to allow for the observation of differences in fiber type distribution and cross-section area associated with ORX and HB treatments. Serial transverse cryosections (10 μm) were prepared from each muscle and were analyzed for myofibrillar adenosine triphosphatase (mATPase) histochemistry after alkaline (pH=9.5) preincubation. Fiber cross-section area and enzyme activity levels were determined from digitized images of the muscle cross-sections that were stored as gray-level pictures using ImageJ software (National Institutes of Health, Bethesda, Md.). […]

A word on the IC50: it is the concentration needed to halve the response being measured. High values mean lower potency, low ones higher potency.

On to `CC[C@@H](C(C)C)[C@H](O)[C@@H](O)[C@@H](C)[C@H]1CC[C@H]2[C@@H]3COC(=O)[C@H]4C[C@H](F)CC[C@]4(C)[C@H]3CC[C@]12C` [Compound 3, (22S,23S,24S)-3α-fluoro-22,23-dihydroxy-24-ethyl-B-homo-7-oxa-5α-cholestan-6-one], for which the “Protein synthesis (% increase over control)” value in the data set on L6 rat myotubes [1] is 24.6±5.3%. Further, in data set [2], the “Scratch wound closure at 5 μM, % of control” value was determined as 15.3 ± 2.6% and the “Wound Closure (% over control)” value is given as 15.3 ± 2.6%. Further, the “Protein degradation (% decrease over control)” value in the data set with L6 rat myotubes [3] was −20.8 ± 0.5 %. In data set [4], the IC50 is around 30 µM and the “cytotoxicity compared to the original brassinosteroids” value is given as “increased cytotoxicity”.

For the molecule `CC[C@@H](C(C)C)[C@H](O)[C@@H](O)[C@@H](C)[C@H]1CC[C@H]2[C@@H]3CNC(=O)[C@H]4C[C@H](O)[C@H](O)C[C@]4(C)[C@H]3CC[C@]12C` [Compound 6, (22S,23S,24S)-2α,3α-22,23-tetrahydroxy-24-ethyl-B-homo-7-aza-5α-cholestan-6-one], in the data set on L6 rat myotubes [1], the “effect of structural modification on activation of protein synthesis, in words” value is given as “reduced biological activity by half” and the “Protein synthesis (% increase over control)” value is listed as 20.9 ± 2.4 %. For the same molecule, in data set [2], the “Scratch wound closure at 5 μM, % of control” value stood at 30.5 ± 4.2 % and the “Wound Closure (% over control)” value is 27.3 ± 3.6 %. Also, the “concentration of highest scratch wound closure activity” value in data set [2] (0.1-10 μM, 12 h (FIG. 17)) was determined as 3 µM. In the data set with L6 rat myotubes [3], the “effect of structural modification on protein degradation activity, in words” value is “completely abolished its effect on protein degradation” and the “Protein degradation (% decrease over control)” value is recorded as −0.6 ± 2.9%. The same molecule showed an IC50 in data set [4] above 30 µM.

`CCC(=O)O[C@H]1CC[C@H]2[C@@H]3CCC4=CC(=O)CC[C@]4(C)[C@H]3CC[C@]12C` [testosterone propionate, reference compound]: in data set [5], the Bulbocavernosus/levator ani weight amounted to 293.8 ± 19.0 mg, the “Cowper's gland weight” value was determined as 34.3 ± 1.9 mg, the Glans penis weight is 72.3 ± 4.5 mg and the Seminal vesicles weight was determined as 228.7 ± 35.3 mg. The Ventral prostate weight in data set [5] came out at 92.8 ± 6.3 mg. In data set [6], the Bulbocavernosus/levator ani weight is 382.0 ± 22.0 mg, the “Cowper's gland weight” value was determined as 34.5 ± 4.7 mg, the Glans penis weight is 93.8 ± 4.2 mg and the Seminal vesicles weight was 262.5 ± 12.5 mg. The Ventral prostate weight in data set [6] stood at 110.50 ± 9.5 mg.
